Data on 16 compounds can be found in patent EP4759807A1, “PROTEOLYSIS TARGETING CHIMERA COMPOUND FOR DEGRADING IRAK4 AND USE THEREOF” (Shenzhen Zhongge Biological Technology Co., Ltd., priority 2023, dated 2025).

SMILES strings stand for the structures. Counter-ions that a name gives are not always drawn.

The target in assay [1] is T1, IRAK4 (Homo sapiens, UniProt Q9NWZ3).
T1 sequence (Q9NWZ3 1-460): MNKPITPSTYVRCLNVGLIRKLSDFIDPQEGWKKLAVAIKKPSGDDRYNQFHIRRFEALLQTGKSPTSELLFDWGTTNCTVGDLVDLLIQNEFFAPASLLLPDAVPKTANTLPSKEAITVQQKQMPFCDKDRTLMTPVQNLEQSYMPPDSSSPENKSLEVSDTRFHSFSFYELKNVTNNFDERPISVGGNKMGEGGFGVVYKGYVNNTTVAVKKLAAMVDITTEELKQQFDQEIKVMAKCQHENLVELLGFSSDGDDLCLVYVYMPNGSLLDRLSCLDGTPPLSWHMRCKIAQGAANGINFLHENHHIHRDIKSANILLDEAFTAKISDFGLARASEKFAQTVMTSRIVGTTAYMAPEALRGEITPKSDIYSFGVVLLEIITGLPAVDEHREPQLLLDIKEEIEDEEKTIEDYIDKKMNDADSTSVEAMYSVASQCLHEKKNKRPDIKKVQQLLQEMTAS
Nature of the assay: Hibit fluorescence detection of proteolysis (IRAK4-HiBiT in HEK293T cells). Format: cell-based. Also noted: host or cells: HEK293T (ATCC). The settings on record: for Dmax: HEK-293T; for DC50: IRAK4-HiBiT, HEK293T cells, 24 h. The method, boiled down: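 Degradation read-out: luminescence from lytic HiBiT detection (15 min, room temperature) after 24 h compound exposure (37 °C, 5% CO2) of HEK293T cells transiently expressing IRAK4 fused to a HiBiT tag. Data fitted to a bell-shaped four-parameter model giving two EC50 values.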
A general note: HiBiT is a short tag that completes a luciferase, so light tracks the accessible tagged protein.

Assay [2] concerns the target T1, IRAK4. In words: WB detection of proteolysis (Western Blot, THP-1 cells). Format: cell-based. The settings on record: Western Blot, THP-1 cells, 24 h; for DC50: read-out: DC50; for Dmax: read-out: Dmax. Here is the method: The degradation level of IRAK4 in THP-1 cells was detected by Western Blot technology. […] 1000X gradient dilution stock of the compound was prepared, with the highest concentration set at 300 µM. The dilution was carried out using DMSO in a 1:3 dilution factor, yielding a total of 9 concentrations. 1000X gradient dilutions of the compound were added to a 12-well plate, with 1 µL per well. Incubation was performed under conditions of 37°C and 5% CO2 for 24 h, and the cells were collected into 2 mL of centrifuge tubes and centrifuged at 5000 rpm for 5 min, and the supernatant was removed. 100 µL of RIPA lysis buffer (Beyotime, P0013C) was added and mixed uniformly, then the cells were lysed on ice for 10 min, centrifuged at 4°C at 14000 rpm for 10 min, and the supernatant was collected. Protein content was determined with BCA (Solarbio, PC0020-10*50T). 75 µL of the supernatant was taken, and 25 µL of NuPAGE LDS Sample Buffer (4X) (Thermo B0007) was added to each tube (5% β-mercaptoethanol was added before use) to prepare samples, and the samples were boiled in a metal bath at 100°C for 5 min. […] 1x NuPAGE™ MOPS SDS electrophoresis buffer (20X) (Invitrogen, NP0001) was prepared, and the electrophoresis instrument was set to a constant current of 300 mA for 100 min, and the protein was transferred to a PVDF membrane (Millipore, IPVH00010). […] The membrane was washed three times with 1x TBST (Elabscience E-BC-R335) the next day, each time for 5 min. […] The membrane was washed three times with TBST, each time for 5 min. The Odyssey imaging system Li-cor Odyssey CLx was used to detect signals and analyze data. GraphPad (Prism 9.3) software was used to perform analysis for data, and non-linear fitting (non-liner inhibitor (Bell-shaped)) and four parameters (4 parameter) were used, and the parameters was as follows: Span1 = Plateau1−Dip [formula] Span2 = Plateau2−Dip [formula] Section1 = Span1/(1+10^(∧)((LogEC50_1−X)*nH1)) [formula] Section2 = Span2/(1+10^(∧)((X−LogEC50_2)*nH2)) [formula]
The equation was as follows: Y=Dip+Section1+Section2.
(In western blotting, separated proteins are transferred to a membrane and probed.)

`Cn1c(=O)n(C2CCC(=O)NC2=O)c2cccc(N3CCC4(CCN(C[C@H]5CC[C@H](n6cc(-n7cc(-c8cnn9ccc(N%10CCC(C)(O)CC%10)nc89)nn7)c(C(F)F)n6)CC5)CC4)C3)c21` (stereo partly shown) [Example 123]: on IRAK4 [1], the Dmax is greater than 80% and the DC50 is less than 0.0005 µM. On IRAK4 [2], the DC50 is less than 0.01 µM and the Dmax is less than 60%.
As for `Cn1c(=O)n(C2CCC(=O)NC2=O)c2cccc(N3CCC(N4CCN(C[C@H]5CC[C@H](n6cc(-n7cc(-c8cnn9ccc(N%10CCNCC%10)nc89)nn7)c(C(F)F)n6)CC5)CC4)CC3)c21` (stereo partly shown) [Example 127, 3-(4-(4-(4-(((1r,4r)-4-(3-(difluoromethyl)-4-(4-(5-(piperazin-1-yl))pyrazolo[1,5-a]pyrimidin-3-yl)-1H-1,2,3-triazol-1-yl)-1H-pyrazol-1-yl)cyclohexyl)methyl)piperazin-1-yl)piperidin-1-yl)-3-methyl-2-oxo-2,3-dihydro-1H-benzo[d]imidazol-1-yl)piperidine-2,6-dione dihydrochloride], on IRAK4 [1], the Dmax was greater than 80% and the DC50 was less than 0.0005 µM. At IRAK4 [2], the DC50 was 0.01 to 0.03 µM and the Dmax was greater than 70%.
On to `Cn1c(=O)n(C2CCC(=O)NC2=O)c2cccc(N3CCN(C4CCN(C[C@H]5CC[C@H](n6cc(-n7cc(-c8cnn9ccc(N[C@@H]%10CCCC[C@@H]%10O)nc89)nn7)c(C(F)F)n6)CC5)CC4)CC3)c21` (stereo partly shown) [Example 153], for which, at IRAK4 [1], the Dmax is greater than 80% and the DC50 was less than 0.0005 µM. Moreover, at IRAK4 [2], the DC50 was less than 0.01 µM and the Dmax was greater than 70%.
The like results for `Cn1c(=O)n(C2CCC(=O)NC2=O)c2cccc(N3CCC4(CCN(C[C@H]5CC[C@H](n6cc(-n7cc(-c8cnn9ccc(N[C@H]%10CCCC[C@H]%10O)nc89)nn7)c(C(F)F)n6)CC5)CC4)CC3)c21` (stereo partly shown) [Example 148] were, in that order, greater than 80%, less than 0.0005 µM, 0.01 to 0.03 µM and greater than 70%.
On IRAK4 [1], `Cn1c(=O)n(C2CCC(=O)NC2=O)c2cccc(N3CCC(N4CCN(C[C@H]5CC[C@H](n6cc(-n7cc(-c8cnn9ccc(N%10CCC(C)(O)CC%10)nc89)nn7)c(C(F)F)n6)CC5)CC4)CC3)c21` (stereo partly shown) [Example 124] showed a Dmax greater than 80% and a DC50 of less than 0.0005 µM. At IRAK4 [2], the DC50 is less than 0.01 µM and the Dmax fell in the range of 60 to 70%.
For `Cn1c(=O)n(C2CCC(=O)NC2=O)c2cccc(N3CCC4(CCN(C[C@H]5CC[C@H](n6cc(-n7cc(-c8cnn9ccc(N%10CCC(O)CC%10)nc89)nn7)c(C(F)F)n6)CC5)C4)CC3)c21` (stereo partly shown) [Example 139], the Dmax at IRAK4 [1] is greater than 80%; at IRAK4 [2], greater than 70%. Moreover, the DC50 on IRAK4 [1] was less than 0.0005 µM; on IRAK4 [2], less than 0.01 µM.
As to `Cn1c(=O)n(C2CCC(=O)NC2=O)c2cccc(N3CCC(N4CCN(C[C@H]5CC[C@H](n6cc(-n7cc(-c8cnn9ccc(N[C@@H]%10CCCC[C@@H]%10O)nc89)nn7)c(C(F)F)n6)CC5)CC4)CC3)c21` (stereo partly shown) [Example 155], the Dmax is greater than 80% at IRAK4 [1] and greater than 70% at IRAK4 [2]. The figures for the DC50 on IRAK4 [1] and on IRAK4 [2] were less than 0.0005 µM and less than 0.01 µM, respectively.
The like results for `Cn1c(=O)n(C2CCC(=O)NC2=O)c2cccc(N3CCN(C[C@H]4CC[C@H](n5cc(-n6cc(-c7cnn8ccc(N9CCC[C@@H](O)C9)nc78)nn6)c(C(F)F)n5)CC4)CC3)c21` (stereo partly shown) [Example 243] were, in that order, greater than 80%, greater than 70%, less than 0.0005 µM and less than 0.01 µM.
The like results for `Cn1c(=O)n(C2CCC(=O)NC2=O)c2cccc(N[C@H]3CC[C@H](N(C)C[C@H]4CC[C@H](n5cc(-n6cc(-c7cnn8ccc(N9CCC[C@H](N)C9)nc78)nn6)c(C(F)F)n5)CC4)CC3)c21` (stereo partly shown) [Example 118] were, in that order, greater than 80%, greater than 70%, less than 0.0005 µM and 0.01 to 0.03 µM.
The matching figures for `Cn1c(=O)n(C2CCC(=O)NC2=O)c2cccc(N3CCC4(CCN(C[C@H]5CC[C@H](n6cc(-n7cc(-c8cnn9ccc(N[C@@H]%10CCCC[C@@H]%10O)nc89)nn7)c(C(F)F)n6)CC5)C4)CC3)c21` (stereo partly shown) [Example 154]: greater than 80%, greater than 70%, less than 0.0005 µM and less than 0.01 µM.
Regarding `C[C@H]1CN(c2ccn3ncc(-c4cn(-c5cn([C@H]6CC[C@H](CN7CCC(N8CCN(c9cccc%10c9n(C)c(=O)n%10C9CCC(=O)NC9=O)CC8)CC7)CC6)nc5C(F)F)nn4)c3n2)CCO1` (stereo partly shown) [Compound 208], the figures for the Dmax at IRAK4 [1] and on IRAK4 [2] were greater than 80% and greater than 70%, respectively. The DC50 is less than 0.0005 µM on IRAK4 [1] (read-out: DC50) and less than 0.01 µM at IRAK4 [2].
For the compound `Cn1c(=O)n(C2CCC(=O)NC2=O)c2cccc(N3CCC4(CCN(C[C@H]5CC[C@H](n6cc(-n7cc(-c8ccc9cc(C(N)=O)cnn89)nn7)c(C(F)F)n6)CC5)CC4)C3)c21` (stereo partly shown) [Example 62, 7-(1-(3-(difluoromethyl)-1-((1r,4r)-4-((2-(1-(2,6-dioxopiperidin-3-yl)-3-methyl-2-oxo-2,3-dihydro-1H-benzo[d]imidazol-4-yl)-2,8-diazaspiro[4.5]dec-8-yl)methyl)cyclohexyl)-1H-pyrazol-4-yl)-1H-pyrazol-1,2,3-triazol-4yl)pyrrolo[1,2-b]pyridazine-3-carboxamide], on IRAK4 [1], the Dmax was greater than 80% and the DC50 is less than 0.0005 µM. At IRAK4 [2], the DC50 is less than 0.01 µM and the Dmax was greater than 70%.
In the case of `Cn1c(=O)n(C2CCC(=O)NC2=O)c2cccc(N3CCC4(CCN(C[C@H]5CC[C@H](n6cc(-n7cc(-c8ccc9cc(C(N)=O)cnn89)nn7)c(C(F)F)n6)CC5)CC4)CC3)c21` (stereo partly shown) [Example 85, 7-(1-(3-(difluoromethyl)-1-((1r,4r)-4-((9-(1-(2,6-dioxopiperidin-3-yl)-3-methyl-2-oxo-2,3-dihydro-1H-benzo[d]imidazol-4-yl)-3,9-diazaspiro[5.5]undecan-3-yl)methyl)cyclohexyl)-1H-pyrazol-4-yl)-1H-1,2,3-triazol-4-yl)pyrrolo[1,2-b]pyridazine-3-carboxamide], at IRAK4 [1], the Dmax was greater than 80% and the DC50 is less than 0.0005 µM. On IRAK4 [2], the DC50 is less than 0.01 µM and the Dmax is greater than 70%.
The like results for `Cn1c(=O)n(C2CCC(=O)NC2=O)c2cccc(C3CCN(C[C@H]4CC[C@H](n5cc(-n6cc(-c7ccc8cc(C(N)=O)cnn78)nn6)c(C(F)F)n5)CC4)CC3)c21` (stereo partly shown) [Example 84, 7-(1-(3-(difluoromethyl)-1-((1r,4r)-4-((4-(1-(2,6-dioxopiperidin-3-yl)-3-methyl-2-oxo-2,3-dihydro-1H-benzo[d]imidazol-4-yl)piperidin-1-yl)methyl)cyclohexyl)-1H-pyrazol-4-yl)-1H-1,2,3-triazol-4-yl)pyrrolo[1,2-b]pyridazine-3-carboxamide] were, in that order, greater than 80%, less than 0.0005 µM, less than 0.01 µM and less than 60%.
For `Cn1c(=O)n(C2CCC(=O)NC2=O)c2cccc(N3CCC4(CCN(C[C@H]5CC[C@H](n6cc(-n7cc(-c8cnn9ccc(N%10CCC[C@H](N)C%10)nc89)nn7)c(C(F)F)n6)CC5)CC4)CC3)c21` (stereo partly shown) [Example 120], the results for the Dmax on IRAK4 [1] and on IRAK4 [2] were greater than 80% and greater than 70%, respectively. The DC50 at IRAK4 [1] was 0.0005 to 0.001 µM; on IRAK4 [2] it was less than 0.01 µM.
With `Cn1c(=O)n(C2CCC(=O)NC2=O)c2cccc(N3CCN(C4CCN(C[C@H]5CC[C@H](n6cc(-n7cc(-c8cnn9ccc(N%10CCC[C@@H](O)C%10)nc89)nn7)c(C(F)F)n6)CC5)CC4)CC3)c21` (stereo partly shown) [Example 245], on IRAK4 [1], the Dmax was greater than 80% and the DC50 was less than 0.0005 µM. Also, on IRAK4 [2], the DC50 was less than 0.01 µM and the Dmax was greater than 70%.
